Test results: patent US12215140B2, “Method of stabilizing protein contained in specimen and solution for stabilizing protein contained in specimen” (EIKEN KAGAKU KABUSHIKI KAISHA, priority 2018, dated 2025)

Test system: hemoglobin-haptoglobin complex
Assay: Stability of hemoglobin (as hemoglobin-haptoglobin complex) in samples preserved at 37° C. in preservation solution containing 1 unit/L haptoglobin, Hb measured by latex agglutination method (Examples 1 to 7)
Set-up: species or system human
Conditions: arylboronic acid 15 mmol/L, 37° C.
Method: Preservation solutions were prepared with the addition of 40 mmol/L HEPES (pH 6.8), 0.1% BSA, 0.1% NaN3, 1 unit/L haptoglobin, and 0 to 100 mmol/L phenylboronic acid. Samples obtained by adding hemoglobin-added fecal specimens to the preservation solutions so that the fecal concentration would be 0.5% were preserved at 37° C. for 0, 7, 14, and 21 days. The fecal specimens were added with hemoglobin having an amount such that the hemoglobin concentration in the samples would be about 300 μg/L. Instead of the fecal specimens to which hemoglobin was added, samples containing no fecal specimens, in which hemoglobin was added to the preservation solutions so that the hemoglobin concentration in the samples would be 300 μg/L, were similarly preserved. The hemoglobin (Hb) concentrations (μg/L) in the preserved samples were measured by the latex agglutination method.
The concentrations of hemoglobin were measured using “OC-Hemodia (registered trademark) Auto III ‘EIKEN’” (available from EIKEN CHEMICAL CO., LTD.) as a measurement reagent and “OC-sensor DIANA” (available from EIKEN CHEMICAL CO., LTD.) as a measurement device. The above measurement reagent contains latex particles immobilizing an anti-human hemoglobin rabbit polyclonal antibody.
From the measured concentrations of hemoglobin, the recovery ratios (%) were calculated with respect to the hemoglobin concentrations immediately after the fecal specimens were added to the preservation solutions (i.e., concentrations 0 days after the fecal specimens were added).
(§1) For comparative examples, preservation solutions to which no arylboronic acid was added were prepared, and testing was conducted in the same manner.
(§2) The concentration of phenylboronic acid in the preservation solutions of Example 1 was fixed to 15 mmol/L, preservation solutions to which a sugar (sorbitol, sucrose, trehalose, glucose, fructose, or mannitol) was further added at 50 mmol/L or 100 mmol/L or preservation solutions to which no sugar was added were prepared, and testing was conducted in the same manner as in Example 1. For comparative examples, preservation solutions to which the phenylboronic acid and sugar were not added were prepared, and testing was conducted in the same manner.
Preservation solutions in which sorbitol, sucrose, trehalose, glucose, fructose, or mannitol was added at 100 mmol/L to the preservation solutions of Example 1 containing no phenylboronic acid were prepared, and testing was conducted in the same manner as in Example 1. For comparison, the same testing was conducted without adding these sugars.
as §2, with “sorbitol” for “a sugar (sorbitol, sucrose, trehalose, glucose, fructose, or mannitol)”, “was” for “was further”, “10 to 500” for “50”, “sucrose was added at 10 to 250” for “100”
as §1

With `O=C(O)c1ccccc1B(O)O` [2C-PBA, 2-carboxyphenylboronic acid] the Hb concentration (Feces 1, 0 days) was 315 µg/L, the “Recovery ratio with respect to Hb after 0 days” value (“Recovery ratio” below) (Feces 1, 0 days) was 100% and the Hb concentration (Feces 1, 7 days) was 196 µg/L. The “Recovery ratio” value (Feces 1, 7 days) was 62%, the Hb concentration (Feces 1, 14 days) was 150 µg/L and the “Recovery ratio” value (Feces 1, 14 days) was 48%. For the same compound, the Hb concentration (Feces 2, 0 days) was 311 µg/L, the “Recovery ratio” value (Feces 2, 0 days) was 100% and the Hb concentration (Feces 2, 7 days) was 157 µg/L. The “Recovery ratio” value (Feces 2, 7 days) was 50%, the Hb concentration (Feces 2, 14 days) was 103 µg/L and the “Recovery ratio” value (Feces 2, 14 days) was 33%. The Hb concentration (Feces 3, 0 days) was 300 µg/L, the “Recovery ratio” value (Feces 3, 0 days) was 100% and the Hb concentration (Feces 3, 7 days) was 124 µg/L. For the same compound, the “Recovery ratio” value (Feces 3, 7 days) was 41%, the Hb concentration (Feces 3, 14 days) was 76 µg/L and the “Recovery ratio” value (Feces 3, 14 days) was 25%. For the same compound, the Hb concentration (No feces, 0 days) was 292 µg/L, the “Recovery ratio” value (No feces, 0 days) was 100% and the Hb concentration (No feces, 7 days) was 272 µg/L. The “Recovery ratio” value (No feces, 7 days) was 93%, the Hb concentration (No feces, 14 days) was 264 µg/L and the “Recovery ratio” value (No feces, 14 days) was 90%.
For `O=C(O)c1ccc(B(O)O)cc1` [4C-PBA, 4-carboxyphenylboronic acid], the Hb concentration (Feces 1, 0 days) was 312 µg/L, the “Recovery ratio” value (Feces 1, 0 days) was 100% and the Hb concentration (Feces 1, 7 days) was 252 µg/L. For the same compound, the “Recovery ratio” value (Feces 1, 7 days) was 81%, the Hb concentration (Feces 1, 14 days) was 234 µg/L and the “Recovery ratio” value (Feces 1, 14 days) was 75%. For the same compound, the Hb concentration (Feces 2, 0 days) was 315 µg/L, the “Recovery ratio” value (Feces 2, 0 days) was 100% and the Hb concentration (Feces 2, 7 days) was 239 µg/L. For the same compound, the “Recovery ratio” value (Feces 2, 7 days) was 76%, the Hb concentration (Feces 2, 14 days) was 227 µg/L and the “Recovery ratio” value (Feces 2, 14 days) was 72%. The Hb concentration (Feces 3, 0 days) was 300 µg/L, the “Recovery ratio” value (Feces 3, 0 days) was 100% and the Hb concentration (Feces 3, 7 days) was 219 µg/L. For the same compound, the “Recovery ratio” value (Feces 3, 7 days) was 73%, the Hb concentration (Feces 3, 14 days) was 194 µg/L and the “Recovery ratio” value (Feces 3, 14 days) was 65%. For the same compound, the Hb concentration (No feces, 0 days) was 279 µg/L, the “Recovery ratio” value (No feces, 0 days) was 100% and the Hb concentration (No feces, 7 days) was 275 µg/L. The “Recovery ratio” value (No feces, 7 days) was 98%, the Hb concentration (No feces, 14 days) was 271 µg/L and the “Recovery ratio” value (No feces, 14 days) was 97%.
